# Results: US9427425B2, “Extracts, fractions and compositions comprising acetogenins and their applications” (LAILA NUTRACEUTICALS, priority 2009, dated 2016)
# Assays:
# TNFα [1] = experiment: Inhibition of LPS induced TNFα in THP-1 human monocytes (EIA); type: cell-based
# Method: Inhibition of Tumor necrosis factor-α (TNF-α) in vitro by extracts, fractions and compounds of Annona squamosa: The anti-inflammatory activities of extracts, fractions and compounds of Annona squamosa were assessed in a cell based in vitro assay. Briefly, THP-1 human monocytes cells were washed and re-suspended in phenol red free Dulbecco's Modified Eagle's Medium (DMEM) supplemented with 1% fetal Bovine serum (FBS). Equal number of cells was added to each well of a 96-well TC plate and the cells were pretreated for 2 h with various concentrations (ranging from 0.1 to 200 ng/mL; solutions prepared in culture medium from a stock solution containing 50 mg/l mL DMSO of each test compound) of extracts, fractions and compounds of Annona squamosa. The inflammatory response was induced by 100 ng/mL of LPS for 4 h at 37° C. in presence of 5% CO2. The vehicle control culture wells received 0.1% DMSO in culture medium. The cell culture supernatants were collected and assessed for secretory pro-inflammatory cytokine, TNFα. The TNFα concentration was quantitatively measured by highly specific and sensitive Enzyme Immuno Assay (EIA) kit supplied by R&D Systems, USA. The enzyme immuno assay was performed based on the protocol provided by the vendor. The inhibitory concentration for 50% inhibition (IC50) of TNFα was determined from a plot drawn for ingredient concentrations against corresponding TNFα levels. […] Table 1 is a summary of 50% inhibitory (IC50) concentrations of various extracts, fractions and compounds derived from Annona squamosa plant parts in cell based in vitro model.
# IFNγ = experiment: Serum cytokine multiplex assay in FCA induced rats: IFNγ; type: in vivo, Sprague Dawley rats; conditions: 10 mg/kg; vehicle control = 1.000
# Description: (§1) Further, the levels of a wide range of cytokine biomarkers were estimated in the serum of the treatment groups supplemented with LI12100 and the control group using multiplex assay (RCYTOMAG 80K) following the instructions provided by the vendor (Millipore Corporation, Billerica, Mass., USA). […] The cytokines modulated by LI12100 include TNFα, IFNγ, IL-1β, IL-2, IL-4, IL-6, IL-13, MCP-1, Rantes and Eotaxin.
# as §1, with “groups” for “groups supplemented with LI12100”, “ameliorated” for “modulated”, “Eotaxin as summarized in Table 3.” for “Eotaxin.”
# IL-1β = experiment: Serum cytokine multiplex assay in FCA induced rats: IL-1β; type: in vivo, Sprague Dawley rats; conditions: 10 mg/kg; vehicle control = 1.000
# Description: as §1
# as §1, with “groups” for “groups supplemented with LI12100”, “ameliorated” for “modulated”, “Eotaxin as summarized in Table 3.” for “Eotaxin.”
# IL-6 = experiment: Serum cytokine multiplex assay in FCA induced rats: IL-6; type: in vivo, Sprague Dawley rats; conditions: 10 mg/kg; vehicle control = 1.000
# Description: as §1
# as §1, with “groups” for “groups supplemented with LI12100”, “ameliorated” for “modulated”, “Eotaxin as summarized in Table 3.” for “Eotaxin.”
# IL-13 = experiment: Serum cytokine multiplex assay in FCA induced rats: IL-13; type: in vivo, Sprague Dawley rats; conditions: 10 mg/kg; vehicle control = 1.000
# Description: as §1
# as §1, with “groups” for “groups supplemented with LI12100”, “ameliorated” for “modulated”, “Eotaxin as summarized in Table 3.” for “Eotaxin.”
# TNFα [2] = experiment: Serum cytokine multiplex assay in FCA induced rats: TNFα; type: in vivo, Sprague Dawley rats; conditions: 10 mg/kg; vehicle control = 1.000
# Description: as §1
# as §1, with “groups” for “groups supplemented with LI12100”, “ameliorated” for “modulated”, “Eotaxin as summarized in Table 3.” for “Eotaxin.”
# IL-2 = experiment: Serum cytokine multiplex assay in FCA induced rats: IL-2; type: in vivo, Sprague Dawley rats; conditions: 10 mg/kg; vehicle control = 1.000
# Description: as §1
# as §1, with “groups” for “groups supplemented with LI12100”, “ameliorated” for “modulated”, “Eotaxin as summarized in Table 3.” for “Eotaxin.”
# TNFα [3] = experiment: Serum TNFα in FCA challenged rats (enzyme-immuno assay kit); type: in vivo, Sprague Dawley rats; conditions: 10 mg/kg
# Method: After 14 days of FCA challenge, serum TNFα was quantitatively measured by enzyme-immuno assay kit (R&D Systems, USA). The bars a, b and c represent the levels of the cytokines in groups supplemented with control, LI12101 (100 mg/kg) and prednisolone (10 mg/kg) respectively. Each bar represents mean±SD, N=6. * p<0.05 and ** p<0.005 (vs. control).
# After 14 days of FCA challenge, serum TNFα[…] was quantitatively measured by enzyme-immuno assay kit (R&D Systems, USA). The bars represent the levels of the cytokines in groups supplemented with control, LI12100 at 50 mg/kg body weight, LI12100 at 100 mg/kg body weight and prednisolone (10 mg/kg) respectively. Each bar represents mean±SD, N=6.
# The levels of cytokine tumor necrosis factor alpha (TNFα) were evaluated in blood serum collected 13 days after FCA challenge. The serum cytokine levels were measured using enzyme-immune assay kit supplied by R & D systems, USA.
# The levels of cytokine tumor necrosis factor-alpha (TNFα) were evaluated in blood serum collected 14 days after FCA challenge. The serum cytokine levels were measured using enzyme-immune assay kit supplied by R & D systems, USA.
# IL-4 = experiment: Serum cytokine multiplex assay in FCA induced rats: IL-4; type: in vivo, Sprague Dawley rats; conditions: 10 mg/kg; vehicle control = 1.000
# Description: as §1
# as §1, with “groups” for “groups supplemented with LI12100”, “ameliorated” for “modulated”, “Eotaxin as summarized in Table 3.” for “Eotaxin.”
# Rantes = experiment: Serum cytokine multiplex assay in FCA induced rats: Rantes; type: in vivo, Sprague Dawley rats; conditions: 10 mg/kg; vehicle control = 1.000
# Description: as §1
# as §1, with “groups” for “groups supplemented with LI12100”, “ameliorated” for “modulated”, “Eotaxin as summarized in Table 3.” for “Eotaxin.”
# [4] = system: Freund's Complete Adjuvant induced paw edema; experiment: Freund's Complete Adjuvant induced arthritis model, paw edema; type: in vivo, Sprague Dawley rats; conditions: 10 mg/kg positive control
# Method: The potent in vitro anti-inflammatory efficacy shown by the Annona squamosa leaf ethyl acetate extract (LI12101; standardized to 0.2% squamocin C) was then tested in an in vivo system using Freund's Complete Adjuvant induced arthritis model of Sprague Dawley rats. The anti-inflammatory efficacy of LI12101 (100 mg/kg body weight per day) was evaluated in Freund's Complete Adjuvant induced arthritis model of Sprague Dawley rats and compared its efficacy with that shown by the positive control group supplemented with Prednisolone at 10 mg/kg body weight. The treatment group rats were supplemented daily with LI12101 or prednisolone. […] Blood samples were collected from each animal at regular intervals and paw volumes were measured by Plethysmography equipment on the day of FCA injection and after 13 days of FCA inoculation. […]
# To further confirm the in vivo anti-inflammatory activity and study the dose dependent effect, the methanol extract of Annona squamosa leaves (LI12100; standardized to 0.24% squamocin C) was evaluated in Freund's Complete Adjuvant induced arthritis model of Sprague Dawley rats. The anti-inflammatory efficacy of LI12100 (at 50 mg/kg and 100 mg/kg body weight per day) was evaluated in FCA induced arthritis model of Sprague Dawley rats and compared its efficacy with that shown by the positive control group supplemented with Prednisolone at 10 mg/kg body weight. […]
# MCP-1 = experiment: Serum cytokine multiplex assay in FCA induced rats: MCP-1; type: in vivo, Sprague Dawley rats; conditions: 10 mg/kg; vehicle control = 1.000
# Description: as §1
# as §1, with “groups” for “groups supplemented with LI12100”, “ameliorated” for “modulated”, “Eotaxin as summarized in Table 3.” for “Eotaxin.”
# Eotaxin = experiment: Serum cytokine multiplex assay in FCA induced rats: Eotaxin; type: in vivo, Sprague Dawley rats; conditions: 10 mg/kg; vehicle control = 1.000
# Description: as §1
# as §1, with “groups” for “groups supplemented with LI12100”, “ameliorated” for “modulated”, “Eotaxin as summarized in Table 3.” for “Eotaxin.”
# [5] = LPS induced THP-1 human monocytes
molecule,measurement,setting,value
"CCCCCCCCCC[C@@H](O)[C@H]1CC[C@H]([C@H]2CC[C@H]([C@H](O)CCCC[C@H](O)CCCCC[C@@H](O)CC3=C[C@H](C)OC3=O)O2)O1 [10-Hydroxyasimicin, 10-hydroxyasimicin]",TNFα inhibition IC50,TNFα [1]; [5],3.21 ng/mL
"CCCCCCCCCC[C@H](O)[C@H]1CC[C@H]([C@H]2CC[C@H]([C@H](O)CCCCCCCCCC[C@@H](O)CC3=C[C@H](C)OC3=O)O2)O1 [Squamocin G, squamocin G]",TNFα inhibition IC50,TNFα [1]; [5],0.124 ng/mL
"CCCCCC(O)CCCCC(O)C1CCC(C2CCC(C(O)CCCCCCCCCCCCC3=CC(C)OC3=O)O2)O1 (centres unmarked) [Squamocin C, squamocin C]",TNFα inhibition IC50,TNFα [1]; [5],0.0249 ng/mL
same,TNFα inhibition IC50,TNFα [1]; THP-1 human monocytes,0.0249 ng/mL
"CCCCCCCCCC[C@H](O)[C@@H]1CC[C@@H]([C@H](O)CC[C@@H](O)[C@@H]2CC[C@@H](CCCCCCCCCC3=C[C@@H](C)OC3=O)O2)O1 [Squamostatin D, squamostatin D]",TNFα inhibition IC50,TNFα [1]; [5],4.08 ng/mL
"CCCCCCCCCCCCCC[C@H]1O[C@H]1CC[C@@H]1O[C@@H]1CCCCCCCCCCC1=C[C@H](C)OC1=O [Dieposabadelin, dieposabadelin]",TNFα inhibition IC50,TNFα [1]; [5],>5 ng/mL
C[C@]12C=CC(=O)C=C1CC[C@@H]1[C@@H]2[C@@H](O)C[C@@]2(C)[C@H]1CC[C@]2(O)C(=O)CO [Prednisolone],Relative expression of IFNγ in serum,IFNγ,1.496
same,Relative expression of IL-1β in serum,IL-1β,0.848
same,Relative expression of IL-6 in serum,IL-6,1.377
same,Relative expression of IL-13 in serum,IL-13,3.120
same,Relative expression of TNFα in serum,TNFα [2],0.754
same,Relative expression of IL-2 in serum,IL-2,0.515
same,serum TNFα level vs control,TNFα [3]; Example 16 study,significant reduction
same,serum TNFα level vs control,TNFα [3]; Example 17 study,significant reduction
same,Relative expression of IL-4 in serum,IL-4,0.831
same,Relative expression of Rantes in serum,Rantes,0.874
same,reduction in paw volume vs control,[4]; Example 16 study,71%
same,reduction in paw volume vs control,[4]; Example 17 study,69.2%
same,Relative expression of MCP-1 in serum,MCP-1,0.802
same,Relative expression of Eotaxin in serum,Eotaxin,0.992
"CCCCCCCCCCC(O)C1CCC(C2CCC(C(O)CCCCCCCCCCCCC3=CC(C)OC3=O)O2)O1 (centres unmarked) [Squamocin L, squamocin L]",TNFα inhibition IC50,TNFα [1]; [5],0.116 ng/mL
isosquamocin,TNFα inhibition IC50,TNFα [1]; [5],0.080 ng/mL
same,TNFα inhibition,TNFα [1]; at 100 pg/mL,63%
